What was measured:
[1] = target: T1, OAT2r (Rattus norvegicus, UniProt Q5RLM2); experiment: intracellular glutamate content of 293 cells expressing OAT2r versus uninduced control cells; format: cell-based; details: n=4
T1 construct: expressed in transfected cells
T1 sequence (Q5RLM2 1-535): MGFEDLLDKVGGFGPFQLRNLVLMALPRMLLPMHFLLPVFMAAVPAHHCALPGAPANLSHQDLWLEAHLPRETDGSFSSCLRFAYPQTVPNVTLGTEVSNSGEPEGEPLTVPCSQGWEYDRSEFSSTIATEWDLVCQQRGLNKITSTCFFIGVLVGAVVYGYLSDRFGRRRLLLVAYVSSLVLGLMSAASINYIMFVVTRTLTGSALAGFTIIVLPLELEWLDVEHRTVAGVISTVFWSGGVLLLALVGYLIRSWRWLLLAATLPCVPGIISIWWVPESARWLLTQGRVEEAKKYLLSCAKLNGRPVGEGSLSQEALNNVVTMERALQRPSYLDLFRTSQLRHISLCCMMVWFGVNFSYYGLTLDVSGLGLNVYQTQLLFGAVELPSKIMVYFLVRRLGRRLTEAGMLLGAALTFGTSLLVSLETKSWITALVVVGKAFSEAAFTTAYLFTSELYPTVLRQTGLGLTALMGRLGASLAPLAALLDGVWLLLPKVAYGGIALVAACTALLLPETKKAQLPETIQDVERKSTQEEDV

[2] = target: T2, OAT2h (Homo sapiens, UniProt Q9Y694); experiment: intracellular glutamate content of 293 cells expressing OAT2h versus uninduced control cells; format: cell-based; details: n=2
T2 construct: expressed in transfected cells; host or cells: 293 cells (HEK-293), pEBTetD/OAT2h, doxycycline-inducible
T2 sequence (Q9Y694 1-546 isoform Q9Y694-2): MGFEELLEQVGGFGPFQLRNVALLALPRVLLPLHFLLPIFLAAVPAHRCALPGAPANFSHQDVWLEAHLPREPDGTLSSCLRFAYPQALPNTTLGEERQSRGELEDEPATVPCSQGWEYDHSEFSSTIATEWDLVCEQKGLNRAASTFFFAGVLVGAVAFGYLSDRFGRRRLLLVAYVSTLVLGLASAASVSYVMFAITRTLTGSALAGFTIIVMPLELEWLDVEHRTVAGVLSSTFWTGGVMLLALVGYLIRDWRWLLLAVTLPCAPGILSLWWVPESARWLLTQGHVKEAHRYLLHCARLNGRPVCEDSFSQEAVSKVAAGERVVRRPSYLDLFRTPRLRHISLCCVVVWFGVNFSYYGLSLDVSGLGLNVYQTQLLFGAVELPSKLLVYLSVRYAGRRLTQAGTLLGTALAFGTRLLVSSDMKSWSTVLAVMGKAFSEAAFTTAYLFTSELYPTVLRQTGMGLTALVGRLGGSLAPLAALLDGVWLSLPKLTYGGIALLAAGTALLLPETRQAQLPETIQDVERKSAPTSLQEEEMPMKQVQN

[3] = target: OAT2h splice variant E131_W132insSQ (Homo sapiens, UniProt Q9Y694); details: initial rate 1 min, 37° C., 10 μmol/l, LC-MS/MS, uptake buffer in the expression period
Experimental: A substrate search by LC-MS difference shading was performed with 293 cells stably transfected to express OAT2 from rat. […] To verify that trigonelline is directly transported by OAT2 and not just increased indirectly, initial rates of uptake (1 min, 37° C.) of trigonelline (10 μmol/l) were determined by LC-MS/MS.
For measurement of solute uptake, cells were grown in surface culture on 60 mm polystyrol dishes (Nunclon 150288, Nunc, Roskilde, Denmark) precoated with 0.1 g/l poly-L-ornithine in 0.15 M boric acid-NaOH, pH 8.4. Cells were used for uptake experiments at a confluence of at least 70%. Uptake was measured at 37° C. […] Radioactivity was determined, after cell lysis with 0.1% v/v Triton X-100 in 5 mmol/l TRIS-HCl pH 7.4, by liquid scintillation counting. […]
After centrifugation (1 min, 16000×g, 20° C.) of thawed lysates, 100 μl of the supernatant was mixed with either 10 μl unlabeled MPP+ iodide (0.5 ng/μl) or biphenyl-4-carboxylic acid (Sigma-Aldrich) as internal standard. Of this mixture, […] were analyzed by LCMS/MS on a triple quadrupole mass spectrometer (4000 Q TRAP, Applied Biosystems, Darmstadt, Germany). […] For quantification (scan time 150 ms), the optimal collision energy for argon-induced fragmentation in the second quadrupole was determined for each analyte. […] Acute uptake mediated by heterologously expressed carrier was then calculated as (c−a)−(d−b). […]

| carrier-mediated clearance [3] | Compound | intracellular glutamate content versus uninduced control cells (factor f) [1] | intracellular glutamate content versus uninduced control cells (factor f) [2] |
| --- | --- | --- | --- |
|  | N[C@@H](CCC(=O)O)C(=O)O [glutamate] | 0.55±0.11 | 0.60±0.09 |
| 2.5±0.9 μl min-1 mg protein-1 | C[n+]1cccc(C(=O)[O-])c1 [trigonelline] |  |  |

Source: US20140090094A1, “MODULATORS OF SLC22A7” (BAYER INTELLECTUAL PROPERTY GmbH, priority 2011, published 2014)
